Results: patent EP4467137A1, “TREATMENT OF FRONTOTEMPORAL DEMENTIA OR FRONTOTEMPORAL LOBAR DEMENTIA” (Universidad Autónoma de Madrid, priority 2023, dated 2024)

Key:
[1] = LPS in vivo model: sickness behaviour (body weight, locomotion, novel object recognition); set-up: species or system mouse; settings: 20 mg·kg^-1 i.p.
Description: The LPS in vivo model was induced, sickness behaviour evaluated (locomotion test and novel object recognition test) and cytokines measured by qPCR as described by [Fernández-Mendivil, Cristina et al. "Protective role of microglial HO-1 blockade in aging: Implication of iron metabolism." Redox biology vol. 38 (2021): 101789. doi:10.1016/j.redox.2020.101789]. The panel of mouse cytokines, chemokines, and growth factors were measured by Luminex xMAP technology for multiplexed quantification at Evetechnologies (https://www.evetechnologies.com/)
(§1) Example 2.3.1. Treatment with Compound 1 reduces LPS-induced cytokine expression and release in mouse brain. Mice were treated i.p. with a daily dose of 20 mg·kg^-1 of Compound 1 for 4 consecutive days. On the last day, LPS (0.5 mg·kg^-1) was injected i.p. one h after the compound. Thereafter, behavioural, and biochemical outcomes were analysed at different time points.
Example 2.3.3. Treatment with Compound 1 reduces LPS-induced sickness behaviour. Peripheral administration of LPS produces neuroinflammation and induces a "sickness behaviour" in mice that is characterized by body weight loss, reduction of the locomotor activity and a cognitive decline.

hyperphosphorylated tau [2] = test: In vivo hTauP301L model: hippocampal hyperphosphorylated tau by AT8 and AT180 immunofluorescence; set-up: species or system mouse; settings: 35 days
Description: (§2) In vivo hTau301L model was induced by stereotaxic injection of AAV-hTauP301L (AAV-hTau) particles as described in [Luengo, Enrique et al. "Implication of type 4 NADPH oxidase (NOX4) in tauopathy." Redox biology vol. 49 (2022): 102210. doi:10.1016/j.redox.2021.102210 ]. Control animals were injected with AAV-GFP. Evaluation of hyperphosphorylated tau in sarkosyl soluble and insoluble fractions; microgliosis; AT8 and AT180 by immunofluorescence; and cognitive test were performed as described previously [Luengo, Enrique et al. "Implication of type 4 NADPH oxidase (NOX4) in tauopathy." Redox biology vol. 49 (2022): 102210. doi:10.1016/j.redox.2021.102210 ].
Oral administration of Compound 1 at different dosages (20 mg·kg^-1 and 50 mg·kg^-1) was administered embedded in gelatine. The compound was given in a mixture of 10 % gelatine from porcine skin and 10 % sucralose in water, heated in a microwave oven. Before Compound 1 addition, gelatine mixture was left at RT. Afterwards, the compound was added, evenly mixed and plated 1 mL·well^-1 in a P24 plate. Before AAV injection, mice were trained to eat the gelatines by giving them one gelatine (without compound) per day for 4 consecutive days. After AAV injection, mice were treated once a day with control or Compound 1 gelatines for 35 consecutive days. This approach was followed in adult (3-4 months old) and aged (16-18 months old) mice injected with AAV-GFP or AAV-hTauP301L.
Example 2.5. Compound 1 ameliorates hTauP301L induced FTD and cognitive decline in adult (3-4 months old) mice. FTD was generated in adult male and female C57BL/6J mice (3-4 months old) by bihippocampal injection of AAV-hTau particles containing the P301L mutation. Mice were treated orally once a day with a single dose of 20 or 50 mg/kg of Compound 1 formulated in gelatines the day after stereotaxic delivery of AAVs (GFP or TauP301L, to controls and FTD, respectively). After 35 days treatment, hyperphosphorylated tau levels were evaluated by immunofluorescence and by WB in soluble and insoluble in sarkosyl fractions. Also, behavioural tests were conducted to study the cognition status of the mice.
Hyperphosphorylated tau levels measured with the antibodies AT8 (p-Ser202/p-Thr205) and AT180 (p-Thr231) were analysed by immunofluorescence in fixed postmortem brain slices of treated mice (Figure 7A).
Example 2.6. Compound 1 ameliorates hTauP301L induced FTD and cognitive decline in aged (16-18 months old) mouse. To include the aging effect in the FTD model, the previous experiments were replicated in male and female 16-18 months old C57/BL6J mice.

hyperphosphorylated tau [3] = test: In vivo hTauP301L model: western blot of sarkosyl soluble and insoluble hyperphosphorylated tau; set-up: species or system mouse; settings: adult mice; 50 mg/kg/day oral, 35 days; sarkosyl insoluble fraction
Description: as §2
Oral administration of Compound 1 at different dosages (20 mg·kg^-1 and 50 mg·kg^-1) was administered embedded in gelatine. The compound was given in a mixture of 10 % gelatine from porcine skin and 10 % sucralose in water, heated in a microwave oven. Before Compound 1 addition, gelatine mixture was left at RT. Afterwards, the compound was added, evenly mixed and plated 1 mL·well^-1 in a P24 plate. […]
Example 2.5. […] After 35 days treatment, hyperphosphorylated tau levels were evaluated by immunofluorescence and by WB in soluble and insoluble in sarkosyl fractions. […]
After 35 days of treatment, monomeric and oligomeric forms of tau, soluble and insoluble in sarkosyl, were analysed by western blot. […]

Iba-1 = test: LPS in vivo model: brain microgliosis by Iba-1 immunofluorescence; set-up: species or system mouse; settings: 20 mg·kg^-1 i.p.; 4 and 24 h after LPS
Description: Immunofluorescence labelling in in vitro and in vivo samples was performed as described in [Luengo, Enrique et al. "Implication of type 4 NADPH oxidase (NOX4) in tauopathy." Redox biology vol. 49 (2022): 102210. doi:10.1016/j.redox.2021.102210 ].
as §1
Example 2.3.2. Treatment with Compound 1 reduces LPS-induced microgliosis in mouse brain. Microglial cells constitute the immune cells of our brain; therefore, they play a key role in regulating neuroinflammation. Microgliosis was evaluated using Iba-1 as a microglial marker in immunofluorescence experiments 4 h and 24 h after the inflammatory stimuli (LPS).

[4] = Oxygen Radical Absorbance Capacity Assay (ORAC); assay type: physicochemical; settings: ORAC > 1.0 is a better ROS scavenger than trolox
Description: The Oxygen Radical Absorbance Capacity Assay (ORAC) was performed as described [Herrera-Arozamena, Clara et al. "Resveratrol-Based MTDLs to Stimulate Defensive and Regenerative Pathways and Block Early Events in Neurodegenerative Cascades." Journal of medicinal chemistry vol. 65,6 (2022): 4727-4751. doi:10.1021/acs.jmedchem.1c01883].

[5] = adult (3-4 months old) mice, 50 mg/kg/day oral
[6] = aged (16-18 months old) mice, 50 mg/kg oral

COc1ccc2c(c1)CC(c1c[nH]c3ccc(OC)cc13)N2 (centres unmarked) [Compound 1, 5-Methoxy-3-(5-methoxyindolin-2-yl)-1H-indole]
Locomotion, line crossings of an imaginary grid ([1]; 4 and 8 h after LPS exposure, values similar to saline animals): improved
body weight loss ([1]; compared to LPS-vehicle treated animals): less reduction of the body weight loss
cognitive decline (NOR test, discrimination index) ([1]; compared to vehicle-LPS treated animals): did not show cognitive decline
AT8 fluorescence in hippocampus (DG, CA1 and CA3) (hyperphosphorylated tau [2]; [5]): significantly reduced
AT180 fluorescence in hippocampus (DG, CA1 and CA3) (hyperphosphorylated tau [2]; [5]): significantly reduced
hyperphosphorylated tau levels by AT8 in DG, CA3 and CA1 (hyperphosphorylated tau [2]; [6]): reduced
hyperphosphorylated tau levels by AT180 in DG, CA3 and CA1 (hyperphosphorylated tau [2]; [6]): reduced
insoluble monomers of AT180 (hyperphosphorylated tau [3]): significant reduction
insoluble oligomers of AT180 (hyperphosphorylated tau [3]): tendency to reduce
mean fluorescence intensity of Iba-1 per cell (Iba-1): restored to saline levels
ORAC (trolox equiv.) [4]: 2.3 ± 0.3 trolox equiv.
